Here are results for 15 compounds from patent US10414721B1, “Inhibitor of endocannabinoid cellular reuptake” (University of Bern, priority 2018, dated 2019).

Where two headings read alike, the source gives them in different places.

The subject of one data set is AEA uptake in U937 cells. Put plainly: AEA uptake inhibition in U937 cells. Format: cell-based. Particulars: for IC50 / IC50 for AEA uptake inhibition: U937 cells. The protocol: Based on the natural product (2E,4E)-N-isobutylamidedodeca-2,4-dienamide from the medicinal plant E. purpurea as a starting point, a library of 634 of analogs and derivatives with varying alkyl chain length was synthesized, and structure of the head group moiety analyzed. All new derivatives were tested for AEA uptake inhibition in U937 cells using a high-content screening assay.
(§1) All radioactivity-based AEA and 2-AG uptake and release assays performed in U937, and HMC-1 cells were carried out using two different assay formats as previously reported. AEA and 2-AG uptake assay in Neuro2a and primary mouse cortical neurons were performed with a different method disclosed in Chicca 2017.

Data set [1] can be described thus: 14C-WOBE437 saturation binding to U937 membranes. Particulars: for competition with 14C-WOBE437 binding: brain and U937 membranes. The protocol:
(§2) In addition to their effects on AEA uptake, the inhibition of FAAH was thoroughly investigated for all nanomolar inhibitors. […] The lack of significant FAAH inhibition by WOBE437 was established in different assay systems using human recombinant enzyme, cell and brain homogenates. […] Importantly, WOBE437 (1 μM) inhibited AEA uptake also in primary mouse cortical neurons by 50% after 2-7 min of incubation with a smaller inhibition (20-35%) upon longer incubation (10-20 min, FIG. 1F). […] In Neuro2a cells, incubation with WOBE437 (5 μM) for 2 and 5 min reduced overall uptake by 40%. (FIG. 1G). […] Then cells were treated with radiolabeled ^14C-WOBE437 to investigate the cellular penetration of the compound. In U937 cells, the vast majority of the radioactive signal was collected in the extracellular and membrane-bound fractions (75-90%), with negligible amounts (5-9%) detected in the intracellular fraction (FIGS. 2A-D). […] In order to further investigate this point, ^14C-WOBE437 was applied to membrane preparations generated in-house from mouse brain and U937 cells. […] The Kd values are in line with the IC50 values shown in the functional AEA uptake assays in Neuro2a and U937 cells (FIGS. 1C and 1D). In further experiments, 10 nM of ^14C-WOBE437 was co-incubated with different concentrations of AEA and U937 membranes. […] Furthermore, the endocannabinoids AEA and noladin ether and the AEA uptake inhibitor OMDM-2 could compete with ^14C-WOBE437 binding in brain and U937 membranes. […] Secondary plots of the slope (Kmapp/Vmaxapp vs. [WOBE437]) and intercept (1/Vmaxapp vs. [WOBE437]) confirmed the competitive inhibition of AEA uptake.

For data set [2], the system named is main EC degrading enzymes (FAAH, MAGL). Particulars: cited from earlier work.
Data set [3] has as its system 2-AG uptake in Neuro2a cells. Put plainly: 2-AG uptake and hydrolysis in Neuro2a cells. Format: cell-based, mouse. Particulars: Neuro2a cells, time course. How it is done: as §1
The next data set has as its system CB1 receptors. Particulars: repeated administrations; cited from earlier work.
The next data set has as its system C57BL6/J mice. Particulars: repeated administrations; cited from earlier work.
The subject of another data set is U937 cells. Put plainly: Localization of 14C-WOBE437 in cellular fractions of U937 cells. Format: cell-based. How it is done: FIGS. 2A-D: Different initial amounts of ^14C-WOBE437 were incubated for 15 min with 1×10^6 of U937 cells at 37° C. Afterwards, cells were centrifuged and the ^14C-signal was measured from the extracellular (light grey), membrane-bound (dark grey) and intracellular (white) fraction. The results are reported in absolute amounts and as percentage of the initial amount.
The cell penetration and tissue distribution of ^14C-WOBE437 was assessed in U937 cells and C57BL6/N mice as described in Chicca 2017.

A short description of data set [4]: 14C-WOBE437 saturation binding to mouse brain membranes. Particulars: mouse brain membranes. The protocol:
as §2

The nature of data set [5]: LC-MS/MS quantification of WOBE437 in tissues after i.p. injection. Format: in vivo, mouse. Particulars: 10 mg/kg i.p., C57BL6/N mice, after 1 h.

As usually defined, the IC50 is the concentration at which inhibition is half-maximal. A higher IC50 goes with weaker potency in that assay. For `CCCCCCC/C=C/C=C/C(=O)NCCc1cccnc1` [2-(pyridin-3-yl)]ethyl], in the data set on AEA uptake in U937 cells (100 nM total AEA), the IC50 is 0.101 µM and the “IC50 for AEA uptake inhibition” value is “nanomolar range”.

In turn, `CCCCCCC/C=C/C=C/C(=O)NCCO` [(2E,4E)-dodecadienoyl ethanolamine] had an IC50 in the data set with AEA uptake in U937 cells of 3.47 µM.

With `CCCCC/C=C\C/C=C\C/C=C\C/C=C\CCCC(=O)NCCO` [AEA, N-arachidonoylethanolamine], the “effect on 14C-WOBE437 binding curve” value in data set [1] (10 nM 14C-WOBE437 co-incubated with increasing AEA) is given as “increase of Kd values, while not significantly modifying Bmax values”. In addition, the “competition with 14C-WOBE437 binding” value in data set [1] is recorded as “could compete”.

For `CCCCC/C=C\C/C=C\C/C=C\C/C=C\CCCC(=O)Nc1ccc(O)cc1` [AM404, N-(4-hydroxyphenyl)arachidonamide], the “substrate of FAAH or MAGL” value in data set [2] (h/rFAAH or hMAGL) was “substrates for h/rFAAH or hMAGL”.

Turning to `O=C(Oc1ccc([N+](=O)[O-])cc1)N1CCC(C(O)(c2ccc3c(c2)OCO3)c2ccc3c(c2)OCO3)CC1` [JZL184], the “effect on 2-AG uptake and hydrolysis” value in data set [3] is “specifically inhibited hydrolysis”. Also, the “effect on CB1 receptors” value with CB1 receptors is recorded as “desensitize CB1 receptors”. Besides, the “2-AG overflow relative to basal levels” value in the data set on C57BL6/J mice was 10-12 times basal levels.

As for `CCCCCCC/C=C/C=C/C(=O)NCCc1ccc2c(c1)OCCO2` [N-(2,3-dihydro-1,4-benzodioxin-6-yl)ethyl dodeca-2E,4E-dienamide], the “potency for AEA uptake relative to WOBE437 (times less potent)” value in the data set on AEA uptake in U937 cells is given as “approximately 13 times”. The “IC50 for AEA uptake inhibition” value with AEA uptake in U937 cells (100 nM total AEA) is “nanomolar range”.

Take `CCCCCCCC/C=C\CCCCCCCC(=O)N[C@@H](CO)Cc1ccc(O)cc1` [OMDM-2]: the “competition with 14C-WOBE437 binding” value in [1] is recorded as “could compete”.

Consider `CCCCC/C=C\C/C=C\C/C=C\C/C=C\CCCC(=O)NCc1ccoc1` [UCM707], for which the “substrate of FAAH or MAGL” value in data set [2] (h/rFAAH or hMAGL) is “substrates for h/rFAAH or hMAGL”.

In the case of `CCCCC/C=C\C/C=C\C/C=C\C/C=C\CCCC(=O)Nc1ccc(O)cc1C` [VDM11, N-(2-methyl-4-hydroxy-phenyl)-arachidonamide], in data set [2], the “substrate of FAAH or MAGL” value was “substrates for h/rFAAH or hMAGL”.

Take `CN(Cc1cccc(-c2ccncc2)c1)C(=O)Oc1ccc(-c2ccc(C(N)=O)cc2)cc1` [WWL70, reference compound]: in data set [3], the “effect on 2-AG uptake and hydrolysis” value was “prevented 2-AG uptake and hydrolysis occurring at later time points”.

As a reminder, the Kd is the constant that tells how readily two partners part at equilibrium. `CCCCCCC/C=C/C=C/C(=O)NCCc1ccc(OC)c(OC)c1` [^14C-WOBE437]: the membrane-associated signal is given as 9.8 % of total signal in the data set with U937 cells (10 nM), 1.7 % of total signal in the data set with U937 cells (100 nM), 0.7 % of total signal with U937 cells (1 μM) and 0.7 % of total signal in the data set on U937 cells (10 μM). For the same compound, the “cell-associated radioactive signal over time” value in the data set with U937 cells (100 nM, 0-30 min) is “approximately 10 % of total signal”. For the same compound, the “radioactive signal in extracellular and membrane-bound fractions” value in the data set with U937 cells (U937 cells, 15 min, 37° C.) was 75-90%. Further, in the data set with U937 cells (U937 cells, 15 min, 37° C.), the “radioactive signal in intracellular fraction” value is given as 5-9%. The Bmax in data set [4] amounted to 18.2±1.5 fmol/mg protein; in [1] (U937 membranes), 15.6±1.4 fmol/mg protein. Further, the Kd in data set [4] (read-out: Kd) turned out to be 0.0157 ± 0.0028 µM; in [1] (U937 membranes), 0.0113 ± 0.0024 µM. In addition, the “tissue distribution of 14C signal” value in [5] was “highest ^14C signal was measured in adipose tissue”.

Regarding `CCCCC/C=C\C/C=C\C/C=C\C/C=C\CCCCOC(CO)CO` [noladin ether], the “competition with 14C-WOBE437 binding” value in [1] was “could compete”.

`CCCCCCCC=CC=CC(=O)NCc1cccnc1` [pyridin-3-ylmethyl] had an IC50 in the data set with AEA uptake in U937 cells (100 nM total AEA) of 2.69 µM.

In the case of `CCCCCCCC=CC=CC(=O)NCCc1ccccc1` [unsubstituted parent compound], the IC50 in the data set with AEA uptake in U937 cells (100 nM total AEA) stood at 1.14 µM.

With benzodioxole, the “potency for AEA uptake relative to WOBE437 (times less potent)” value with AEA uptake in U937 cells is “approximately 13 times”.
